Results on seven molecules are retold here after US9895439B2, “Combined treatment with netrin-1 interfering drug and chemotherapeutic drug” (NETRIS PHARMA, priority 2012, dated 2018).

Numbered stars: 1 amine (or outer) side, 2 acyl side, 3 side chain; on linkers, the order of the positions; unused ones are H or OH. Bridge positions count the residues as written; N and C are the ends. Square brackets hold non-standard residues; d marks the D form. Peptide text beside a SMILES is read from it. I, II: the chains in the order shown. Actinocin(9to1) = Cc1c2oc3c(C)ccc(C(=O)[*:1])c3nc-2c(C(=O)[*:2])c(N)c1=O; NMeV = CN[C@H](C(=O)O)C(C)C; Sar = CNCC(=O)O

One experiment concerns MiaPacA cells. Briefly: Cell survival by MTS assay in MiaPacA cells. The note with it: 48 hours. In kind it is cell-based, human.
The test system of experiment [1] is A549 cells. Nature of the experiment: Cell survival by MTS assay in A549 cells. The note with it: 48 hours. On the technique in general: Tetrazolium assays rely on reduction of a dye to a coloured formazan, in cell work by metabolically active cells.
Protocol: FIGS. 18-19: A549 cells were treated with PBS or 2 μg/mL TRAP-netrin^Unc5A, in presence of the indicated concentrations of 5-Fluorouracil (5-FU, FIG. 18) or Cisplatin (FIG. 19). 48 hours after co-treatment, cell survival was measured by MTS and normalized to untreated cells. *, P<0.05; **, P<0.01; ***, P<0.001.
Cell survival was measured by MTS assay (CellTiter 96 AQueous One Solution Cell Proliferation Assay, Promega) in 96-well plates.
Experiment [2] has as its system A549 cells engrafted in nude mice. Briefly: A549 xenograft in athymic nude mice, tumor growth. In kind it is in vivo. As to conditions: i.p. twice a week for two weeks, TRAP-netrin^UNC5A 20 mg/kg, Doxorubicin 2 mg/kg, alone or combined. The protocol: FIG. 22: Netrin-1 interfering potentiates Doxorubicin anti-cancer effect in a preclinical animal model. A549 cells were engrafted in seven-weeks old female athymic nude mice. Once tumors reached a 100 mm^3-volume, mice were treated intraperitoneally with TRAP-netrin^UNC5A (20 mg/kg), Doxorubicin (2 mg/kg) or with a combination of both drugs, twice a week for two weeks. As a control, mice were injected with PBS. Histogram represents tumor volume growth for each group as a function of days post-xenografts.
Seven-week-old (20-22 g body weight) female athymic nu/nu mice were obtained from Charles River animal facility. The mice were housed in sterilized filter-topped cages and maintained in a pathogen-free animal facility. A549 cells were implanted by s.c. injection of 10^7 cells in 200 μL of PBS into the right flank of the mice. Once tumors were established (V≈100 mm^3), mice were treated with netrin-1 interfering drugs and/or cytotoxic drugs for two weeks. Tumor sizes were measured with a caliper. The tumor volume was calculated with the formula v=0.5*(length*width^2). At the end of the treatment, tumors were harvested, weighted and were embedded in 7.5% gelatin—0.12M sucrose and sectioned into 20 μm slices.
We then assessed whether the in vitro effect seen above could be translated in vivo in a therapeutic perspective. […]

The test system of experiment [3] is A549 cells. Briefly: Cell death rate by ToxiLight bioluminescent cytotoxicity assay in A549 cells. The note with it: 48 hours; for Potentiation of Doxorubicin-induced cell death (toxilight): A549, 2 μg/mL fusion protein plus Doxorubicin.
Protocol: Cell death rate (FIG. 10), measured by toxilight kit as described in materials and methods section, and cell survival (FIG. 11), was evaluated 48 hours after treatment. Results were normalized to control, untreated cells.
A549 cells were transfected with scramble siRNA (siCTRL), netrin-1-specific siRNA (siNet), UNC5B-specific siRNA (siUnc5B) and with a combination of netrin-1 and UNC5B-targeting siRNA. 24 hours after transfection, cells were treated with the indicated Doxorubicin concentrations for 48 hours, and cell death rate was measured by toxilight and normalized to control, untreated cells.
FIGS. 16-17: A549 cells were treated for 48 hours with the indicated Doxorubicin concentrations in presence or not of 2 μg/mL TRAP-netrin^DCC (FIG. 16) and TRAP-netrin^Unc5A (FIG. 17). […] Results were normalized to untreated cells. *, P<0.05; **, P<0.01; ***, P<0.001.
Cell death was evaluated by means of different methods. For total cell death assays, 5*10^3 cells per well were grown in 96-well plate in serum-poor medium and treated with Doxorubicin. 48 hours later, cell death was evaluated using the bioluminescent cytotoxicity assay ToxiLight (Lonza, Basel, Switzerland), according to manufacturer's instruction. […] Cell survival was measured by MTS assay (CellTiter 96 AQueous One Solution Cell Proliferation Assay, Promega) in 96-well plates. MTS assay was performed according to the manufacturer's procedures on 3*10^3 cells grown in serum-poor medium for 16 hours and then treated for 48 hours with the indicated Doxorubicin concentrations in serum-free medium.
Experiment [4] deals with netrin-1 expressing tumor cells. Briefly: Death of netrin-1 expressing tumor cells in vitro (not shown). As to conditions: data not shown. It counts as cell-based.
The subject of experiment [5] is DCC expression in panel of 15 cancer cell lines. The note with it: drug at IC10, IC30, IC50 or ICMAX, 24 hours.
Experiment [6] concerns Netrin-1 gene expression in A549 lung cancer cell line. Nature of the experiment: Netrin-1 gene expression by quantitative RT-PCR in A549 cells. In kind it is cell-based, human. As to conditions: 24 hours.
Experiment [7] has as its system UNC5B gene expression in A549 cells. Nature of the experiment: Netrin-1 receptor gene expression in A549 cells: UNC5B. It counts as cell-based, human.
Experiment [8] concerns UNC5D gene expression in A549 cells. Briefly: Netrin-1 receptor gene expression in A549 cells: UNC5D. It counts as cell-based, human. The note with it: A549 cells following Doxorubicin treatment.
Experiment [9] concerns A549 cells. Briefly: DNA fragmentation in A549 cells. In kind it is cell-based, human. As to conditions: A549 transfected with scramble siRNA (siCTRL), Doxorubicin 24 hours. The protocol: (§1) FIGS. 13-14: Netrin-1 silencing triggers apoptosis in combination with Doxorubicin treatment. A549 cells were transfected as in (FIGS. 10-12), and treated with the indicated Doxorubicin concentrations for 24 hours. […] DoxoR, Doxorubicin.

In experiment [10] the test system is UNC5C gene expression in A549 cells. Nature of the experiment: Netrin-1 receptor gene expression in A549 cells: UNC5C. In kind it is cell-based, human. As to conditions: A549 cells following Doxorubicin treatment.
Experiment [11] has as its system UNC5D expression in panel of 15 cancer cell lines. As to conditions: drug at IC10, IC30, IC50 or ICMAX, 24 hours.
In experiment [12] the test system is UNC5A gene expression in A549 cells. Briefly: Netrin-1 receptor gene expression in A549 cells: UNC5A. It counts as cell-based, human. As to conditions: A549 cells following Doxorubicin treatment.
Experiment [13] has as its system Netrin-1 gene expression in H460 lung cancer cell line. Nature of the experiment: Netrin-1 gene expression by quantitative RT-PCR in H460 cells. The note with it: H460, 2 μM Doxorubicin, 24 hours, normalized with GAPDH, compared to not-treated cells.
The subject of experiment [14] is Netrin-1 protein in A549 cells. Nature of the experiment: Netrin-1 protein levels by western blotting in A549 cells. In kind it is cell-based, human. As to conditions: A549, 1 μM and 2 μM Doxorubicin, 48 hours, normalized to β-actin. On the technique in general: In western blotting, separated proteins are transferred to a membrane and probed.
Protocol: For immunoblot analysis, cells were lysed by sonication in modified RIPA buffer (50 mM Tris-HCl, pH7.5, 150 mM NaCl, 1% NP-40, 0.5% sodium deoxycholate, 0.1% SDS, 1 mM EDTA, protease inhibitor cocktail and 5 mM DTT) and incubated 1 h at 4° C. Cellular debris were pelletted by centrifugation (10.000 g 15′ at 4° C.) and protein extracts (200 μg per lane) were loaded onto 10% SDS-polyacrylamide gels and blotted onto PVDF sheets (Millipore Corporation, Billerica, Mass., U.S.A.). Filters were blocked with 10% non-fat dried milk and 5% BSA in PBS/0.1% Tween 20 (PBS-T) over-night and then incubated for 2 h with rabbit polyclonal α-netrin-1 (dilution 1:500, clone H104, Santa Cruz Biotechnology, Santa Cruz, Calif., USA) and mouse monoclonal β-actin (Santa Cruz Biotechnologies) antibodies. After three washes with PBS-T, filters were incubated with the appropriate HRP-conjugated secondary antibody (1:10000, Jackson ImmunoResearch, Suffolk, UK) for 1 h. Detection was performed using West Dura Chemiluminescence System (Pierce, Rockford, Ill., U.S.A.).
The test system of experiment [15] is A549 cells. Nature of the experiment: Caspase-3 activity assay in A549 cells. In kind it is cell-based, human. As to conditions: A549 transfected with scramble siRNA (siCTRL), Doxorubicin 24 hours. As to the method: as §1
The subject of experiment [16] is DCC gene expression in A549 cells. Briefly: Netrin-1 receptor gene expression in A549 cells: DCC. It counts as cell-based, human. As to conditions: A549 cells following Doxorubicin treatment.
Experiment [17] deals with UNC5B expression in panel of 15 cancer cell lines. The note with it: drug at IC10, IC30, IC50 or ICMAX, 24 hours.

Consider “TRAP-netrin^UNC5A: two immunoglobin (Ig1-Ig2) domains of the UNC5A ectodomain fused to IgG1 Fc portion; SEQ ID NO: 1”, for which, in the experiment on MiaPacA cells (2 μg/mL fusion protein plus 5FU), the “Cell death, co-treatment with 5FU (cell survival by MTS)” value is “potentiated cell death”. The “Cell death, co-treatment with Doxorubicin (cell survival by MTS)” value with MiaPacA cells (2 μg/mL fusion protein plus Doxorubicin) is given as “potentiated cell death”. Also, the “Potentiating effect on cell death, co-treatment with 5FU (cell survival by MTS)” value with A549 cells [1] (A549, 2 μg/mL fusion protein plus 5FU) is “Comparable potentiating effect on cell death”. In addition, the “Potentiating effect on cell death, co-treatment with Cisplatin (cell survival by MTS)” value in the experiment on A549 cells [1] (A549, 2 μg/mL fusion protein plus Cisplatin) is given as “Comparable potentiating effect on cell death”. Besides, the Tumor growth inhibition entry in experiment [2] is recorded as “detectable but weak tumor growth inhibiting effect”. Moreover, the “Potentiation of Doxorubicin-induced cell death (toxilight)” value in the experiment with A549 cells [3] was “strongly potentiate”. Also, the “Death of netrin-1 expressing tumor cells in vitro” value in experiment [4] is recorded as “trigger death of netrin-1 expressing tumor cells”.
Regarding `CC(=O)O[C@H]1C(=O)[C@@]2(C)[C@H]([C@H](OC(=O)c3ccccc3)[C@]3(O)C[C@H](OC(=O)[C@H](O)[C@@H](NC(=O)c4ccccc4)c4ccccc4)C(C)=C1C3(C)C)[C@]1(OC(C)=O)CO[C@@H]1C[C@@H]2O` [Taxol, paclitaxel], the “cell lines with up-regulation of DCC” value in [5] turned out to be 53%.
Regarding `Cc1c2oc3c(C)ccc(C(=O)N[C@@H]4C(=O)N[C@H](C(C)C)C(=O)N5CCC[C@H]5C(=O)N(C)CC(=O)N(C)[C@@H](C(C)C)C(=O)O[C@@H]4C)c3nc-2c(C(=O)N[C@@H]2C(=O)N[C@H](C(C)C)C(=O)N3CCC[C@H]3C(=O)N(C)CC(=O)N(C)[C@@H](C(C)C)C(=O)O[C@@H]2C)c(N)c1=O` [Actinomycin D] (I: T[dV]P[Sar][NMeV] / II: T[dV]P[Sar][NMeV]; ester I:1-I:C, II:1-II:C; linker I:N-II:N via Actinocin(9to1)), in experiment [6] (A549, 2 μM Doxorubicin plus Actinomycin D 100 μg/ml), the “Effect on Doxorubicin-mediated netrin-1 up-regulation” value is “fully prevents”.
Take `N.N.[Cl][Pt][Cl]` [Cisplatin]: the “cell lines with up-regulation of DCC” value in [5] came to 36%.
Take `O=c1[nH]cc(F)c(=O)[nH]1` [5FU, 5-Fluorouracil]: in [5], the “cell lines with up-regulation of DCC” value is on record as 43%.
In the case of `COc1cccc2c1C(=O)c1c(O)c3c(c(O)c1C2=O)C[C@@](O)(C(=O)CO)C[C@@H]3O[C@H]1C[C@H](N)[C@H](O)[C@H](C)O1` [Doxorubicin], in [7] (A549 cells following Doxorubicin treatment, result in words), the UNC5B gene expression entry is reported as “significantly up-regulated”. Besides, in experiment [7] (A549 cells treated with Doxorubicin), the “UNC5B receptor level increase” value was 44 folds. The UNC5D gene expression entry in experiment [8] is given as “non-significant variations”. The “Apoptosis (DNA fragmentation)” value in the experiment with A549 cells [9] was “failed to induce apoptosis”. The “netrin-1 mRNA level increase” value in [6] (A549, 2 μM Doxorubicin, normalized with GAPDH, compared to not-treated cells) was determined as 430 fold; in [13], 300 fold. The “cell lines with up-regulation of DCC” value in experiment [5] was found to be 87%. Moreover, the UNC5C gene expression entry in experiment [10] is listed as “non-significant variations”. The “cell lines with up-regulation of UNC5D” value in [11] was 67%. The UNC5A gene expression result in experiment [12] is “significantly up-regulated”. Moreover, the Tumor growth inhibition entry in experiment [2] is reported as “detectable but weak tumor growth inhibiting effect”. In the experiment with A549 cells [3] (A549 scramble siRNA-transfected cells, increasing Doxorubicin concentrations), the “Cell death rate and cell survival under Doxorubicin” value is on record as “general resistance”. Besides, in experiment [14], the Netrin-1 protein levels result was “strongly accumulated”. Further, the “Apoptosis (active caspase-3)” value in the experiment with A549 cells [15] is listed as “failed to induce apoptosis”. For the same molecule, the DCC gene expression result in [16] was “significantly up-regulated”. In addition, the “cell lines with up-regulation of UNC5B” value in experiment [17] is given as 80%.

B1: TRAP-netric^DCC: fifth fibronectin domain of DCC ectodomain fused to IgG1 Fc portion (protein)
chain: PPVGVQAVALTHDAVRVSWADNSVPKNQKTSEVRLYTVRWRTSFSASAKYKSEDTTSLSYTATGLKPNTMYEFSVMVTKNRRSSTWSMTAHATTYEA
modifications: left off: a dimerising Fc or GST
notes: fifth fibronectin domain of DCC ectodomain fused to IgG1 Fc portion
In the case of B1, the “Potentiation of Doxorubicin-induced cell death (toxilight)” value in the experiment on A549 cells [3] is reported as “strongly potentiate”. In [4], the “Death of netrin-1 expressing tumor cells in vitro” value is “trigger death of netrin-1 expressing tumor cells”.
